Assay type in all cases: cell-based, human
Assay [1] deals with Bcl-xL. The experiment in a line: Western blot of Bcl-xL phosphorylation. The note with it: HT29 cells, 3, 6 and 24 h. Here is the method: (§1) Western blotting. Floating and adherent cells were harvested and pellets were resuspended in RIPA buffer (50 mM Tris/HCl 7.4, 250 mM NaCl, 0,5% Igepal CA630, 5 mM EDTA, 1 mM PMSF, 10 μg/ml leupeptin, 50 mM NaF, 0.1 mM Na3VO4) or Deoxycholate buffer (10 mM phosphate buffer 7.4, […] NaCl, 0.5% Deoxycholate, 1% Igepal, 0.1% SDS, 1 mM PMSF). Protein concentration was determined with BCA Protein Assay Kit (Pierce) for RIPA extracts or Bradford assay (BioRad) for Deoxycholate extracts. Total protein (20-30 μg/lane) were separated by SDS-PAGE, transferred to PVDF membranes (Gellman), and probed with antibodies against Bcl-xL (Transduction); Bax (Santa Cruz); JNK (Santa Cruz); phospho-JNK (Cell Signaling); pRb (Pharmingen); pRb-phospho Ser780 (Cell Signalling); p130 (Santa Cruz); p107 (Santa Cruz); Cdk2 (Santa Cruz); p27^Kip1 (Santa Cruz); p21^Cip1 (Santa Cruz); actin (Sigma); or tubulin (ICN) and developed with ECL system (AmershamPharmacia biotech)
(§2) FIG. 6. (A) JNK is activated after N13-13-10C treatment. HT29 cells were treated for 1, 3, 6 and 24 h with N13-13-10C (35 μM), harvested and immunoblotted to assess activation of SAP/JNK MAP kinase. Western blot was first probed with the JNK-phosphor specific antibody, was stripped and reprobed with the pan-JNK antibody and actin to normalize total protein level. […]
In general terms: In western blotting, separated proteins are transferred to a membrane and probed.

In assay [2] the test system is Bax. The experiment in a line: Western blot of Bax. Particulars: HT29 cells. Here is the method:
as §1, §2

Assay [3] deals with HT29 cells. The experiment in a line: Annexin V-FITC detection assay. Particulars: HT29, 35 μM, 40 h treatment. On the procedure: Annexin V assay. Treated cells were harvested with EDTA 0.02% in Hank's Balanced Salt Solution (HBSS), washed in HBSS then in PBS (phosphate buffered saline) containing 1% BSA (Bovine serum albumine) and finally resuspended in Annexin V incubation buffer (10 mM HEPES 7.4; 140 mM NaCl; 2.5 mM CaCl2) containing 1% BSA. 10^5 cells were incubated with 5 μl Annexin-V-FITC (Bender MedSystems) for 1 h at room temperature and in the dark. Dead cells were stained with Propidium Iodide (PI) at 2 μg/ml. The analysis was immediately performed by flow cytometry.
FIG. 5. Detection of early apoptosis. Annexin V assay after 40 h of treatment with DMSO (right panel), N13-13-10C, 35 µM (central panel), or Taxol, 11 nM (left panel). HT29 treated cells were stained with Annexin V-FITC and PI and subjected to flow cytometry. Fluorescence dot blots of annexin V positive (vertical axis) and PI positive (horizontal axis, logarithmic values) cells are shown. Cell distribution expressed as percentage of the population is indicated: early apoptotic cells in quadrant 1, Q1 (AnV+/IP−); dead cells in Q2 (AnV+/IP+); living cells in Q3 (AnV−/IP−); necrotic cells in Q4 (AnV−/IP+).

The test system of assay [4] is pRb, p130, p107, p27kip1, p21Cip1. The assay is described as follows: Western blot of G1 checkpoint proteins in synchronized T98 g cells. Here is the method:
as §1
FIG. 8. Expression of protein involved in G0/G1 checkpoint. (A.) HT29 cells were treated for 1, 3, 6 and 24 h with N10-13-10C (40 μM) or N13-13-10C (35 µM), harvested and immunoblotted to assess total pRb levels or Cdk4 specific phosphorylation at pRb-Ser^780 (PpRb). Western blot was first probed with the pRb-Ser^780 phosphorylation specific antibody, was stripped and reprobed with the pan-pRb antibody and tubulin to normalize total protein level. (B.) T98 g cells were synchronized by serum starvation and reinitiated with 10% FCS and DMSO (C), N13-13-10C (100 μM) or Taxol (30 nM) for 15, 17, 24 or 29 h. Western blot of total protein extracts was probed with antibodies to p130, pRb, p107, Cdk2, cycA, p27, p21 and actin. Unphosphorylated, hypophosphorylated as well as hyperphosphorylated pRb are detected (arrows). (C.) HT29 cells treated for 24 and 48 h with N13-13-10C (40 μM) or DMSO as control. Immunoblots were stained with antibodies to Cdk2, cycA, p21, p27 and actin.

As for `COc1ccc(CCN(CC(=O)N(CCc2ccccc2)CC(N)=O)C(=O)CNCCc2ccccc2)cc1` [N10-13-10C], the “Bcl-xL phosphorylation (slower migrating band)” value in assay [1] is given as “not observed”. Besides, the Bax level entry in assay [2] is “not increased”.
Turning to `COc1ccc(CCNCC(=O)N(CCc2ccc(OC)cc2)CC(=O)N(CCc2ccccc2)CC(N)=O)cc1` [N13-13-10C], in assay [3], the “Early apoptotic cells (IP negative, Annexin V positive)” value came out at 14% and the “Increase of early apoptotic cells with respect to control cells” value is listed as 3.5 fold. For the same compound, in assay [4] (T98 g, 100 μM), the “Time of p21Cip1 peak levels” value worked out at 17 h. For the same compound, the p27kip1 level entry in assay [4] (T98 g, after 15 h of treatment) is reported as “appreciable induction”. In assay [4] (synchronized T98 g, 100 μM), the “Total pRb levels” value was “decreased total pRb levels”, the p107 levels result is on record as “down regulated”, the p130 phosphorylation result is “remains also hypophosphorylated” and the p130 total levels result is listed as “total levels are increased”. The pRb hyperphosphorylation entry in assay [4] (synchronized T98 g, 100 μM) was “prevented pRb hyperphosphorylation”.

The values are drawn from patent US20060229255A1, “Identification of n-alkylglycine trimers for induction of apoptosis” (priority 2003, published 2006).
